In brackets after ≈: the same amount, converted by molar mass. Several values for one entry are separate records, joined by “and”; a condition that tells them apart may be missing. Equal values may be shown once. Read-outs that look alike come from different tables or passages of the source.

Assay [1] has as its system S. epidermidis MSSE. The settings on record: Gram positive clinical isolate.
Assay [2] deals with P. aeruginosa-gentamicin^s, meropenem^s. The settings on record: Gram negative clinical isolate.
Assay [3] has as its system Streptococcus bovis ATCC 9809. The assay can be described thus: MIC, broth microdilution. The format is cell-based. The settings on record: Gram positive reference strain. Here is the method:
(§1) Minimal Inhibition Concentration (MIC) measurements: The Minimal Inhibitory Concentration (MIC) was generally determined by the Broth Microdilution method (based on the protocol described in Clinical and Laboratory Standard Institute (CLSI) NCCLS (2003) M7-A6), as follows:
(§2) A stock solution of each of the tested compounds was prepared by diluting the compound to a 2,560 μg/ml concentration with an appropriate solvent. The stock solution was then serially 2-fold diluted in 96-well microdilution trays using Cation-Adjusted Mueller-Hinton Broth (CAMHB) until reaching the desired range of concentrations, whereas each well contained double the final working concentration. Each row further had one growth control well (medium+inoculum only), and one sterility control well (medium+tested compound). Plates were stored at −70° C. until used.
(§3) The tested microorganisms were used as fresh overnight cultures on blood agar (for gram-positive organisms) or MacConkey agar (for gram-negatives). A standardized inoculum suspension was prepared by the direct colony suspension method, using sterile saline (equivalent to a 0.5 McFarland standard).
(§4) Thus, 50 μl of the inoculum suspension were added to each tested well (except for the sterility control well), and […] was performed during 18-24 hours (depending on the tested microorganism or compound) at 35° C.
(In broth dilution the organism is exposed to a series of concentrations in liquid medium.)

Assay [4] concerns VRE faecium. The settings on record: clinical isolate, Table 7.
The test system of assay [5] is Pseudomonas aeruginosa ATCC 27853. The conditions noted are these: Gram negative reference strain.
Assay [6] relates to S. aureus MRSA. The conditions noted are these: Gram positive clinical isolate.
Assay [7] deals with P. aeruginosa-gentamicin^r, meropenem^r. The conditions noted are these: Gram negative clinical isolate.
Assay [8] relates to Staphylococcus aureus ATCC 24213. The settings on record: Gram positive reference strain.
For assay [9], the system named is E. coli U3075921. Briefly: MIC, broth microdilution. The format is cell-based, Escherichia coli. The settings on record: clinical isolate, Table 7. The method, then: as §1, §2, §3, §4
In assay [10] the test system is Moraxella catarrhalis ATCC 25238 (Branhamella). The settings on record: Gram negative reference strain.
Assay [11] relates to S. epidermidis MRSE. The settings on record: Gram positive clinical isolate.
Assay [12] deals with Serratia marcescens. The settings on record: Gram negative clinical isolate.
For assay [13], the system named is P. aeruginosa-gentamicin^s, meropenem^s. The assay can be described thus: microbe, parasite or virus in culture. The settings on record: Pseudomonas aeruginosa, read-out: Minimum Inhibitory Concentration.
Assay [14] relates to Klebsiella pneumoniae ATCC 13883. Briefly: microbe, parasite or virus in culture. The settings on record: ATCC13883, read-out: Minimum Inhibitory Concentration.
For assay [15], the system named is Enterococcus faecium (clinical isolate). Briefly: MIC, broth microdilution. The format is cell-based. The conditions noted are these: Gram positive clinical isolate; for MIC: read-out: Minimum Inhibitory Concentration.
The test system of assay [16] is Serratia marcescens. Briefly: microbe, parasite or virus in culture. The settings on record: read-out: Minimum Inhibitory Concentration.
In assay [17] the test system is A. baumannii R16998. Briefly: microbe, parasite or virus in culture. The conditions noted are these: Acinetobacter baumannii, R16998, read-out: Minimum Inhibitory Concentration.
The subject of assay [18] is K. pneumoniae-ESBL positive. Briefly: microbe, parasite or virus in culture. The conditions noted are these: Klebsiella pneumoniae, read-out: Minimum Inhibitory Concentration.
The test system of assay [19] is P. aeruginosa R17093. The assay can be described thus: MIC, broth microdilution. The settings on record: Gram negative clinical isolate, read-out: Minimum Inhibitory Concentration. The format is cell-based, Pseudomonas aeruginosa.
Assay [20] relates to P. aeruginosa-gentamicin^r, meropenem^r. Briefly: microbe, parasite or virus in culture. The settings on record: Pseudomonas aeruginosa, read-out: Minimum Inhibitory Concentration.
The test system of assay [21] is A. baumannii-amikacin^s, meropenem^s. The assay can be described thus: microbe, parasite or virus in culture. The settings on record: Acinetobacter baumannii, read-out: Minimum Inhibitory Concentration.
For assay [22], the system named is Acinetobacter baumannii ATCC 19606. The assay can be described thus: microbe, parasite or virus in culture. The settings on record: ATCC19606, read-out: Minimum Inhibitory Concentration.
Assay [23] concerns Enterococcus faecalis B84939-vancomycin^r. The assay can be described thus: MIC, broth microdilution. The format is cell-based. The settings on record: Enterococcus faecalis; Gram positive clinical isolate; read-out: Minimum Inhibitory Concentration.
Assay [24] has as its system S. epidermidis MSSE. Briefly: microbe, parasite or virus in culture. The conditions noted are these: Staphylococcus epidermidis, read-out: Minimum Inhibitory Concentration.
For assay [25], the system named is Enterobacter cloacae. Briefly: microbe, parasite or virus in culture. The conditions noted are these: read-out: Minimum Inhibitory Concentration.
Assay [26] has as its system Moraxella catarrhalis ATCC 25238 (Branhamella). The assay can be described thus: microbe, parasite or virus in culture. The conditions noted are these: ATCC25238, read-out: Minimum Inhibitory Concentration.
The test system of assay [27] is A. baumannii-amikacin^r, meropenem^r. Briefly: microbe, parasite or virus in culture. The settings on record: Acinetobacter baumannii, read-out: Minimum Inhibitory Concentration.
In assay [28] the test system is Pseudomonas aeruginosa ATCC 27853. The assay can be described thus: microbe, parasite or virus in culture. The conditions noted are these: ATCC27853, read-out: Minimum Inhibitory Concentration.
For assay [29], the system named is A. baumannii E11436. The assay can be described thus: MIC, broth microdilution. The format is cell-based, Acinetobacter baumannii. The settings on record: clinical isolate, Table 7. Here is the method:
as §1, §2, §3, §4

For `CC(=O)N[C@H](CCCNC(=N)N)C(=O)N[C@H](CCCNC(=N)N)C(=O)N[C@H](CCCNC(=N)N)C(=O)N[C@H](CCCNC(=N)N)C(=O)N[C@H](CCCNC(=N)N)C(=O)N[C@H](CCCNC(=N)N)C(=O)N[C@H](CCCNC(=N)N)C(=O)N[C@H](CCCNC(=N)N)C(=O)N[C@H](CCCNC(=N)N)C(=O)O` [Compound 12, D-Arg-9-mer-NHAc], the “Minimum Inhibitory Concentration” value was 8.0 mg/liter and 3.99 μM in assay [1]; > 256.0 mg/liter and 127.64 μM in assay [2]; 128.0 mg/L in assay [3]; above 128.0 mg/L in assay [4]; > 256.0 mg/liter and 127.64 μM in assay [5]; > 128.0 mg/liter and 63.82 μM in assay [6]. Further, the “Minimum Inhibitory Concentration” value is > 256.0 mg/liter and 127.64 μM in [7]; 128.0 mg/liter and 63.82 μM in assay [8]; 96.0 mg/L in assay [9]; 16.0 mg/liter and 7.98 μM in assay [10]; 96.0 mg/liter and 47.86 μM in assay [11]; > 256.0 mg/liter and 127.64 μM in [12].
Turning to `NCC1OC(OC2C(CO)OC(OC3C(O)C(N)CC(N)C3OC3OC(CN)C(O)C(O)C3N)C2O)C(N)C(O)C1O` (stereo not shown) [Neomycin], the MIC in [13] was 16 µg/mL and 17.6 µM; in assay [14], 0.7 µg/mL and 0.77 µM; in assay [15] (Enterococcus faecium), 256 µg/mL and 282 µM; in [16], 1 µg/mL and 1.1 µM; in [17] it was 32 µg/mL and 35.2 µM; in assay [18], 1.5 µg/mL and 1.65 µM. For the same molecule, the MIC is 211.22 µM (≈ 130 µg/mL) in assay [19]; 211 µM and 192 µg/mL in assay [19] (Pseudomonas aeruginosa, R17093); 128 µg/mL and 141 µM in assay [20]; 3 µg/mL and 3.3 µM in assay [21]; 6 µg/mL and 6.6 µM in assay [22]; 64 µg/mL and 70.4 µM in assay [23]. Further, the MIC in assay [24] is 0.5 µg/mL and 0.55 µM; in assay [25], 4 µg/mL and 4.4 µM; in assay [26] it was 0.25 µg/mL and 0.28 µM; in [27], 106 µM and 96 µg/mL; in [28] it was 128 µg/mL and 141 µM.
For D-Arg-9-mer-neomycin [Compound 14], the “Minimum Inhibitory Concentration” value in assay [1] was 0.52 µM; in assay [15], 24.0 mg/L; in assay [2], > 256.0 mg/liter and 88.22 μM; in assay [3] it was 24.0 mg/L; in assay [5], > 256.0 mg/liter and 88.22 μM; in [6], 32.0 mg/liter and 11.02 μM. Besides, the “Minimum Inhibitory Concentration” value in assay [7] is > 156.0 mg/liter and 53.76 μM; in assay [8] it was 32.0 mg/liter and 11.02 μM; in assay [9], 48.0 mg/liter and 16.54 μM; in [10], 8.0 mg/liter and 2.76 μM; in assay [11] it was 8.0 mg/liter and 2.76 μM; in assay [12] it was 64.0 mg/liter and 22.05 μM. Also, the “Minimum Inhibitory Concentration” value in assay [29] is 64.0 mg/L. The MIC in assay [15] turned out to be 8.27 µM.
